In PubChem BioAssay AID1918996 (Molecular Pharmacology Branch, DTP, NCI, 2023):

System: 349418-098-R-PDC complex spheroid growth
Assay: Anticancer human tumor 349418-098-R-PDC patient-derived lung adenocarcinoma cell line growth inhibition [AhR]
Settings: for IC50: curve of first compound; for viability, T/C: stronger effect = lower value
In short: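 Agents were dosed in half-log steps down from roughly clinical Cmax, or from 10 microM where Cmax was unknown, alone and with AhR antagonists. Read-out: percent test/control growth of tumor spheroids containing HUVEC and MSC stromal cells.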

[1] = second compound 0.1 µM, first compound 0.0316 µM
[2] = second compound 0.1 µM, first compound 0.1 µM
[3] = second compound 0.316 µM, first compound 0.0316 µM
[4] = second compound 0.316 µM, first compound 0.1 µM
[5] = second compound 1 µM, first compound 0.0316 µM
[6] = second compound 1 µM, first compound 0.1 µM
[7] = second compound 3.16 µM, first compound 0.0316 µM
[8] = second compound 3.16 µM, first compound 0.1 µM
[9] = second compound 10 µM, first compound 0.0316 µM
[10] = second compound 10 µM, first compound 0.1 µM
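Further: spheroids exposed to agents for seven days before luminescence viability read.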
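Wherever viability, T/C is given: spheroids also contain HUVEC endothelial cells and human MSC stroma.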

## CC1(C)CCC(CN2CCN(c3ccc(C(=O)NS(=O)(=O)c4ccc(NCC5CCOCC5)c([N+](=O)[O-])c4)c(Oc4cnc5[nH]ccc5c4)c3)CC2)=C(c2ccc(Cl)cc2)C1 + Cc1ccccc1N=Nc1ccc(NC(=O)c2ccnn2C)c(C)c1
Second compound 0.1 µM
  IC50: 5.8 µM
Second compound 0.316 µM
  IC50: 6.03 µM
Second compound 1 µM
  IC50: 6.54 µM
Second compound 3.16 µM
  IC50: 3.54 µM
Second compound 10 µM
  IC50: 3.26 µM
[1]
  viability, T/C: 116%
[2]
  viability, T/C: 111%
Second compound 0.1 µM, first compound 0.316 µM
  viability, T/C: 116%
Second compound 0.1 µM, first compound 1 µM
  viability, T/C: 92.9%
Second compound 0.1 µM, first compound 3.16 µM
  viability, T/C: 71.6%
Second compound 0.1 µM, first compound 10 µM
  viability, T/C: 31.6%
[3]
  viability, T/C: 81.5%
[4]
  viability, T/C: 81.1%
Second compound 0.316 µM, first compound 0.316 µM
  viability, T/C: 64.4%
Second compound 0.316 µM, first compound 1 µM
  viability, T/C: 70%
Second compound 0.316 µM, first compound 3.16 µM
  viability, T/C: 86.1%
Second compound 0.316 µM, first compound 10 µM
  viability, T/C: 29.1%
[5]
  viability, T/C: 101%
[6]
  viability, T/C: 82.1%
Second compound 1 µM, first compound 0.316 µM
  viability, T/C: 84.7%
Second compound 1 µM, first compound 1 µM
  viability, T/C: 79.7%
Second compound 1 µM, first compound 3.16 µM
  viability, T/C: 85.7%
Second compound 1 µM, first compound 10 µM
  viability, T/C: 29.2%
[7]
  viability, T/C: 76.9%
[8]
  viability, T/C: 65.9%
Second compound 3.16 µM, first compound 0.316 µM
  viability, T/C: 73.3%
Second compound 3.16 µM, first compound 1 µM
  viability, T/C: 66.1%
Second compound 3.16 µM, first compound 3.16 µM
  viability, T/C: 52%
Second compound 3.16 µM, first compound 10 µM
  viability, T/C: 26%
[9]
  viability, T/C: 54.6%
[10]
  viability, T/C: 59.8%
Second compound 10 µM, first compound 0.316 µM
  viability, T/C: 65.1%
Second compound 10 µM, first compound 1 µM
  viability, T/C: 51.8%
Second compound 10 µM, first compound 3.16 µM
  viability, T/C: 52%
Second compound 10 µM, first compound 10 µM
  viability, T/C: 25.9%

## CCN(c1cc(-c2ccc(CN3CCOCC3)cc2)cc(C(=O)NCc2c(C)cc(C)[nH]c2=O)c1C)C1CCOCC1 + Cc1ccccc1N=Nc1ccc(NC(=O)c2ccnn2C)c(C)c1
Second compound 0.1 µM
  IC50: > 3 µM
Second compound 0.316 µM
  IC50: > 3 µM
Second compound 1 µM
  IC50: 1.55 µM
Second compound 3.16 µM
  IC50: 1.45 µM
Second compound 10 µM
  IC50: 0.154 µM
Second compound 0.1 µM, first compound 0.00949 µM
  viability, T/C: 68.2%
Second compound 0.1 µM, first compound 0.03 µM
  viability, T/C: 97.2%
Second compound 0.1 µM, first compound 0.0949 µM
  viability, T/C: 67.4%
Second compound 0.1 µM, first compound 0.3 µM
  viability, T/C: 56.3%
Second compound 0.1 µM, first compound 0.949 µM
  viability, T/C: 86.4%
Second compound 0.1 µM, first compound 3 µM
  viability, T/C: 53.1%
Second compound 0.316 µM, first compound 0.00949 µM
  viability, T/C: 101%
Second compound 0.316 µM, first compound 0.03 µM
  viability, T/C: 69.1%
Second compound 0.316 µM, first compound 0.0949 µM
  viability, T/C: 95.9%
Second compound 0.316 µM, first compound 0.3 µM
  viability, T/C: 72.4%
Second compound 0.316 µM, first compound 0.949 µM
  viability, T/C: 70.4%
Second compound 0.316 µM, first compound 3 µM
  viability, T/C: 64%
Second compound 1 µM, first compound 0.00949 µM
  viability, T/C: 87.8%
Second compound 1 µM, first compound 0.03 µM
  viability, T/C: 121%
Second compound 1 µM, first compound 0.0949 µM
  viability, T/C: 85.5%
Second compound 1 µM, first compound 0.3 µM
  viability, T/C: 78.3%
Second compound 1 µM, first compound 0.949 µM
  viability, T/C: 56.5%
Second compound 1 µM, first compound 3 µM
  viability, T/C: 42%
Second compound 3.16 µM, first compound 0.00949 µM
  viability, T/C: 76.8%
Second compound 3.16 µM, first compound 0.03 µM
  viability, T/C: 68.9%
Second compound 3.16 µM, first compound 0.0949 µM
  viability, T/C: 75.2%
Second compound 3.16 µM, first compound 0.3 µM
  viability, T/C: 59%
Second compound 3.16 µM, first compound 0.949 µM
  viability, T/C: 55.8%
Second compound 3.16 µM, first compound 3 µM
  viability, T/C: 42.3%
Second compound 10 µM, first compound 0.00949 µM
  viability, T/C: 59.4%
Second compound 10 µM, first compound 0.03 µM
  viability, T/C: 71.1%
Second compound 10 µM, first compound 0.0949 µM
  viability, T/C: 54.9%
Second compound 10 µM, first compound 0.3 µM
  viability, T/C: 38.4%
Second compound 10 µM, first compound 0.949 µM
  viability, T/C: 49.2%
Second compound 10 µM, first compound 3 µM
  viability, T/C: 42.1%

## Cn1ncnc1C1c2n[nH]c(=O)c3cc(F)cc(c23)NC1c1ccc(F)cc1 (stereo not given) + Cc1ccccc1N=Nc1ccc(NC(=O)c2ccnn2C)c(C)c1
Second compound 0.1 µM
  IC50: > 0.1 µM
Second compound 0.316 µM
  IC50: > 0.1 µM
Second compound 1 µM
  IC50: > 0.1 µM
Second compound 3.16 µM
  IC50: > 0.1 µM
Second compound 10 µM
  IC50: > 0.1 µM
Second compound 0.1 µM, first compound 0.000316 µM
  viability, T/C: 106%
Second compound 0.1 µM, first compound 0.001 µM
  viability, T/C: 93.8%
Second compound 0.1 µM, first compound 0.00316 µM
  viability, T/C: 118%
Second compound 0.1 µM, first compound 0.01 µM
  viability, T/C: 56.1%
[1]
  viability, T/C: 99.1%
[2]
  viability, T/C: 67.4%
Second compound 0.316 µM, first compound 0.000316 µM
  viability, T/C: 110%
Second compound 0.316 µM, first compound 0.001 µM
  viability, T/C: 87.2%
Second compound 0.316 µM, first compound 0.00316 µM
  viability, T/C: 113%
Second compound 0.316 µM, first compound 0.01 µM
  viability, T/C: 74.1%
[3]
  viability, T/C: 115%
[4]
  viability, T/C: 71.6%
Second compound 1 µM, first compound 0.000316 µM
  viability, T/C: 82.9%
Second compound 1 µM, first compound 0.001 µM
  viability, T/C: 102%
Second compound 1 µM, first compound 0.00316 µM
  viability, T/C: 106%
Second compound 1 µM, first compound 0.01 µM
  viability, T/C: 89.9%
[5]
  viability, T/C: 94.2%
[6]
  viability, T/C: 80.6%
Second compound 3.16 µM, first compound 0.000316 µM
  viability, T/C: 72.1%
Second compound 3.16 µM, first compound 0.001 µM
  viability, T/C: 90.2%
Second compound 3.16 µM, first compound 0.00316 µM
  viability, T/C: 98.8%
Second compound 3.16 µM, first compound 0.01 µM
  viability, T/C: 79%
[7]
  viability, T/C: 71.4%
[8]
  viability, T/C: 63.6%
Second compound 10 µM, first compound 0.000316 µM
  viability, T/C: 61.5%
Second compound 10 µM, first compound 0.001 µM
  viability, T/C: 71.8%
Second compound 10 µM, first compound 0.00316 µM
  viability, T/C: 76.2%
Second compound 10 µM, first compound 0.01 µM
  viability, T/C: 51.2%
[9]
  viability, T/C: 70.8%
[10]
  viability, T/C: 55.6%
